Laboratory results reported in patent US10617675B2, “Hepatitis C virus inhibitors” (BRISTOL-MYERS SQUIBB COMPANY, priority 2015, dated 2020).
pEC50: −log10 of the molar value. Like-named read-outs stand apart in the source and are kept apart here.

Columns and labels:
HCV = experiment: Relative (synergistic) activity of separated diastereomers; type: cell-based, Hepatitis C virus; details: comparison within the set of three diastereomers; first eluting isomer
[1] = test system: HCV genotype-1a variant with glutamine 30 changed to glutamate in the NS5A protein; details: genotype-1a Q30E NS5A variant, cited from earlier work
[2] = test system: HCV genotype-1a variant with glutamine 30 changed to glutamate in the NS5A protein; type: cell-based, Hepatitis C virus; details: genotype-1a Q30E; BMS-790052 titrated with 200 nM P-55 versus singly
Text: The NS5A synergistic inhibitory effect of test compounds can be determined using various amounts of an NS5A-targeting compound with titration of a second compound of interest. […] The test compound can be chosen from compounds listed above or from others present in the literature.

SMILES | activity relative to the other separated diastereomers (HCV) | pEC50 ([1]; P-55 fixed at 200 nM, read-out: EC50 of BMS-790052 in the presence of a fixed amount of P-55) | pEC50 ([1]; single agent, read-out: EC50, compound titrated singly) | reciprocal synergistic inhibitory effect for the combination [2]
CC(C)(C)[C@H](NC(=O)C1(CO)OC2CCC1CC2)c1nc(-c2ccc(-c3ccc(-c4c[nH]c([C@@H](NC(=O)C5(CO)OC6CCC5CC6)C(C)(C)C)n4)cc3)cc2)c[nH]1 (single isomer, unassigned) [Example Y14] | most active isomer |  |  | 
COC(=O)N1CC(F)(F)CC1(C)C(=O)N[C@H](c1nc2ccc(-c3cnc(-c4ccc5nc([C@@H](NC(=O)C6(C)CC(F)(F)CN6C(=O)OC)C(C)(C)C)[nH]c5c4)cn3)cc2[nH]1)C(C)(C)C (stereo partly shown) [Example Y20] | most synergistically active of the three |  |  | 
COC(=O)N[C@H](C(=O)N1CCC[C@H]1c1nc(-c2ccc(-c3ccc(-c4c[nH]c([C@@H]5CCCN5C(=O)[C@@H](NC(=O)OC)C(C)C)n4)cc3)cc2)c[nH]1)C(C)C [BMS-790052] |  | ~8.70 | ~6.70 | ~100 fold
CC(C)(C)[C@H](NC(=O)C(C)(OC(=O)N1CCC1)C1(C)CC1)c1nc(-c2ccc(-c3ccc(-c4c[nH]c([C@@H](NC(=O)C(C)(OC(=O)N5CCC5)C5(C)CC5)C(C)(C)C)n4)cc3)cc2)c[nH]1 (stereo partly shown) [Example Y19a] | most synergistically active of the three |  |  | 
CN(C)C(=O)OC(C)(C(=O)N[C@H](c1ncc(-c2ccc(-c3ccc(-c4cnc([C@@H](NC(=O)C(C)(OC(=O)N(C)C)C(C)(C)CF)C(C)(C)C)[nH]4)cc3)cc2)[nH]1)C(C)(C)C)C(C)(C)CF (single isomer, unassigned) [Example Y1] | most active of the set |  |  | 
